Data on 40 molecules can be found in patent publication US20120171126A1, “NOVEL [3,2-c] HETEROARYL STEROIDS AS GLUCOCORTICOID RECEPTOR AGONISTS COMPOSITIONS AND USES THEREOF” (priority 2009, published 2012).

The subject of the experiment is IL-8. The experiment is described as follows: Glucocorticoid transrepression assay, IL-8 inhibition (TR). It counts as cell-based. The conditions noted are these: Homo sapiens, NCl-H292 cells, TNFα 10 ng/ml; for Emax: read-out: IL-8 inhibition (TR) Emax % inhibition. As for the experimental part:
Human Lung epithelial cell line NCl-H292 cells were dissociated from stock flask using 0.05% trypsin/0.53 mM EDTA. Cells were suspended in complete medium and counted. Cells were plated in 96-well flat-bottom plates at 20K cells /well in 0.2 ml/well. Plates were incubated for 24-48 hours until cells were between 75-90% confluent. Medium was aspirated and replaced with medium containing various concentrations of steroids or antagonists. After 1 hour incubation at 37°, TNFα (10 ng/ml final concentration in 0.2 ml) was added and the cells incubated overnight. Control wells with and without TNF were included on each plate, as well as wells with TNF in addition to a maximum (10 μM) concentration of dexamethasone. The cell culture medium was sampled and IL-6 and IL-8 cytokine production was measured using the MSD Multi-Spot immunoassay.

Read-outs that look alike come from different tables or passages of the source. A value given as a limit tells only on which side of the number the result lay.

As a reminder, the IC50 is the midpoint of a concentration-inhibition curve. The term Emax denotes the maximal effect, on the per cent scale that the assay sets. On to `CC12Cc3cnn(-c4ccc(F)cc4)c3C=C1CCC1C2[C@@H](O)CC2(C)C1CC[C@]2(O)C(=O)Cn1cc(-c2cccnc2)nn1` (some centres unmarked) [Compound 1], for which, under “Table 6”, the IC50 is 0.06 to 20 nM and the Emax was over 80%.

Regarding `CC12Cc3cnn(-c4ccc(F)cc4)c3C=C1CCC1C2[C@@H](O)CC2(C)C1CC[C@]2(O)C(=O)Nc1nc2cccnc2s1` (some centres unmarked) [Compound 1], for the setting “Table 2”, the IC50 is 0.06 to 20 nM and the Emax is over 80%.

For the molecule `C[C@]12Cc3cnn(-c4ccc(F)cc4)c3C=C1CCC1C2[C@@H](O)C[C@@]2(C)C1CC[C@]2(O)C(=O)CN1CCN(c2nc3ccccc3o2)CC1` (some centres unmarked) [Compound 1], for the setting “Table 5”, the IC50 is 0.06 to 20 nM and the Emax was over 80%.

Regarding `C[C@]12Cc3cnoc3C=C1CCC1C2[C@@H](O)C[C@@]2(C)C1CC[C@]2(O)C(=O)CSc1nc2ccccc2o1` (some centres unmarked) [Compound 1], the maximal effect (Emax) (Table 3) was under 60%.

For the molecule `C#CCN1CCN(CC(=O)[C@@]2(O)CCC3C4CCC5=Cc6c(cnn6-c6ccc(F)cc6)C[C@]5(C)C4[C@@H](O)C[C@@]32C)CC1` (some centres unmarked) [Compound 2], the Emax (Table 5) is under 60%.

Consider `CC12Cc3cnn(-c4ccc(F)cc4)c3C=C1CCC1C2[C@@H](O)CC2(C)C1CC[C@]2(O)C(=O)Cn1cc(Cc2ccccc2)nn1` (some centres unmarked) [Compound 2], for which, under “Table 6”, the IC50 was 0.06 to 20 nM and the Emax was over 80%.

Take `CC12Cc3cnn(-c4ccc(F)cc4)c3C=C1CCC1C2[C@@H](O)CC2(C)C1CC[C@]2(O)C(=O)Nc1nc2ccccc2s1` (some centres unmarked) [Compound 2]: where the note is “Table 2”, the IC50 lay in the range of 0.06 to 20 nM and the Emax was over 80%.

Regarding `C[C@]12Cc3cnoc3C=C1CCC1C2[C@@H](O)C[C@@]2(C)C1CC[C@]2(O)C(=O)CSc1cnc2ccccc2n1` (some centres unmarked) [Compound 2], for the setting “Table 3”, the Emax was under 60%.

On to `Cn1c(SCC(=O)[C@@]2(O)CCC3C4CCC5=Cc6c(cnn6-c6ccc(F)cc6)CC5(C)C4[C@@H](O)CC32C)nc2ccccc21` (some centres unmarked) [Compound 2], for which, under “Table 1”, the IC50 was in the range of 0.06 to 20 nM and the maximal effect (Emax) is over 80%.

For the molecule `CC12Cc3cnn(-c4ccc(F)cc4)c3C=C1CCC1C2[C@@H](O)CC2(C)C1CC[C@]2(O)C(=O)NCc1ccccc1` (some centres unmarked) [Compound 3], where the note is “Table 2”, the IC50 lay in the range of 0.06 to 20 nM and the Emax is over 80%.

In the case of `CCOC(=O)c1cnn(CC(=O)[C@@]2(O)CCC3C4CCC5=Cc6c(cnn6-c6ccc(F)cc6)CC5(C)C4[C@@H](O)CC32C)c1` (some centres unmarked) [Compound 3], for the setting “Table 7”, the IC50 lay within 0.06 to 20 nM and the Emax was over 80%.

As to `C[C@]12Cc3cnn(-c4ccc(F)cc4)c3C=C1CCC1C2[C@@H](O)C[C@@]2(C)C1CC[C@]2(O)C(=O)CN1CCN(c2ccccn2)CC1` (some centres unmarked) [Compound 3], where the note is “Table 5”, the IC50 lay within 0.06 to 20 nM and the maximum response (Emax) was over 80%.

Consider `C[C@]12Cc3cnoc3C=C1CCC1C2[C@@H](O)C[C@@]2(C)C1CC[C@]2(O)C(=O)CSc1ccccn1` (some centres unmarked) [Compound 3], for which, for the setting “Table 3”, the Emax was under 60%.

Regarding `C[C@]12Cc3cnn(-c4ccc(F)cc4)c3C=C1CCC1C2[C@@H](O)C[C@@]2(C)C1CC[C@]2(O)C(=O)CN1CCN(c2ncccn2)CC1` (some centres unmarked) [Compound 4], where the note is “Table 5”, the concentration for half-maximal inhibition (IC50) was 0.06 to 20 nM and the Emax was over 80%.

Turning to `C[C@]12Cc3cnn(-c4ccc(F)cc4)c3C=C1CCC1C2[C@@H](O)C[C@@]2(C)C1CC[C@]2(O)C(=O)NC1(c2ccccc2)CC1` (some centres unmarked) [Compound 4], under “Table 2”, the IC50 was in the range of 0.06 to 20 nM and the Emax was over 80%.

As to `C[C@]12Cc3cnoc3C=C1CCC1C2[C@@H](O)C[C@@]2(C)C1CC[C@]2(O)C(=O)CSc1ccc2ccccc2n1` (some centres unmarked) [Compound 4], the Emax (Table 3) was under 60%.

For the molecule `Cc1cnn(CC(=O)[C@@]2(O)CCC3C4CCC5=Cc6c(cnn6-c6ccc(F)cc6)CC5(C)C4[C@@H](O)CC32C)c1` (some centres unmarked) [Compound 4], where the note is “Table 7”, the IC50 was in the range of 0.06 to 20 nM and the Emax is over 80%.

Take `C#CCNC(=O)[C@@]1(O)CCC2C3CCC4=Cc5c(cnn5-c5ccc(F)cc5)C[C@]4(C)C3[C@@H](O)C[C@@]21C` (some centres unmarked) [Compound 5]: where the note is “Table 2”, the IC50 is 0.06 to 20 nM and the Emax was over 80%.

Take `CC12Cc3cnn(-c4ccc(F)cc4)c3C=C1CCC1C2[C@@H](O)CC2(C)C1CC[C@]2(O)C(=O)CSc1ccccn1` (some centres unmarked) [Compound 5]: where the note is “Table 1”, the IC50 fell in the range of 0.06 to 20 nM and the Emax is over 80%.

Take `C[C@]12Cc3cnn(-c4ccc(F)cc4)c3C=C1CCC1C2[C@@H](O)C[C@@]2(C)C1CC[C@]2(O)C(=O)CN1CCN(Cc2ccc(C(F)(F)F)cc2)CC1` (some centres unmarked) [Compound 5]: for the setting “Table 5”, the IC50 lay within 0.06 to 20 nM and the Emax is over 80%.

With `Cn1c(SCC(=O)[C@@]2(O)CCC3C4CCC5=Cc6oncc6C[C@]5(C)C4[C@@H](O)C[C@@]32C)nc2ccccc21` (some centres unmarked) [Compound 5], for the setting “Table 3”, the IC50 is 401 to 1000 nM and the Emax is under 60%.

Take `CC12Cc3cnn(-c4ccc(F)cc4)c3C=C1CCC1C2[C@@H](O)CC2(C)C1CC[C@]2(O)C(=O)CSc1cnc2ccccc2n1` (some centres unmarked) [Compound 6]: under “Table 1”, the IC50 was 0.06 to 20 nM and the Emax was over 80%.

For the molecule `C[C@@H](NC(=O)[C@@]1(O)CCC2C3CCC4=Cc5c(cnn5-c5ccc(F)cc5)C[C@]4(C)C3[C@@H](O)C[C@@]21C)c1ccccc1` (some centres unmarked) [Compound 6], for the setting “Table 2”, the IC50 was 0.06 to 20 nM and the Emax was over 80%.

On to `C[C@]12Cc3cnoc3C=C1CCC1C2[C@@H](O)C[C@@]2(C)C1CC[C@]2(O)C(=O)CSc1nc2ccccc2s1` (some centres unmarked) [Compound 6], for which the Emax (Table 3) was under 60%.

In the case of `CC12Cc3cnn(-c4ccc(F)cc4)c3C=C1CCC1C2[C@@H](O)CC2(C)C1CC[C@]2(O)C(=O)CSc1ncccn1` (some centres unmarked) [Compound 7], under “Table 1”, the IC50 is 0.06 to 20 nM and the Emax was over 80%.

Consider `C[C@@H](NC(=O)[C@@]1(O)CCC2C3CCC4=Cc5c(cnn5-c5ccc(F)cc5)C[C@]4(C)C3[C@@H](O)C[C@@]21C)c1cccc2ccccc12` (some centres unmarked) [Compound 7], for which, for the setting “Table 2”, the IC50 is 0.06 to 20 nM and the Emax was over 80%.

As for `C[C@]12Cc3cnn(-c4ccc(F)cc4)c3C=C1CCC1C2[C@@H](O)C[C@@]2(C)C1CC[C@]2(O)C(=O)NC1(c2ncc(F)cc2F)CC1` (some centres unmarked) [Compound 8], under “Table 2”, the IC50 was in the range of 0.06 to 20 nM and the Emax is over 80%.

With `CC12Cc3cnn(-c4ccc(F)cc4)c3C=C1CCC1C2[C@@H](O)CC2(C)C1CC[C@]2(O)C(=O)CC#N` (some centres unmarked) [Compound 9], under “Table 1”, the IC50 fell in the range of 0.06 to 20 nM and the Emax is over 80%.

As for `C[C@@H](NC(=O)[C@@]1(O)CCC2C3CCC4=Cc5c(cnn5-c5ccc(F)cc5)C[C@]4(C)C3[C@@H](O)C[C@@]21C)c1ccccn1` (some centres unmarked) [Compound 9], where the note is “Table 2”, the concentration for half-maximal inhibition (IC50) was 0.06 to 20 nM and the Emax is over 80%.

On to `CC12Cc3cnn(-c4ccc(F)cc4)c3C=C1CCC1C2[C@@H](O)CC2(C)C1CC[C@]2(O)C(=O)CSc1nc2cccnc2s1` (some centres unmarked) [Compound 10], for which, for the setting “Table 1”, the IC50 fell in the range of 0.06 to 20 nM and the Emax was over 80%.

For `C[C@]12Cc3cnn(-c4ccc(F)cc4)c3C=C1CCC1C2[C@@H](O)C[C@@]2(C)C1CC[C@]2(O)C(=O)NCc1ccc2nccn2c1` (some centres unmarked) [Compound 10], for the setting “Table 2”, the IC50 was 0.06 to 20 nM and the Emax is over 80%.

With `CC12Cc3cnn(-c4ccc(F)cc4)c3C=C1CCC1C2[C@@H](O)CC2(C)C1CC[C@]2(O)C(=O)CSc1nccc2ccccc12` (some centres unmarked) [Compound 11], where the note is “Table 1”, the IC50 lay within 0.06 to 20 nM and the Emax was over 80%.

Take `C[C@]12Cc3cnn(-c4ccc(F)cc4)c3C=C1CCC1C2[C@@H](O)C[C@@]2(C)C1CC[C@]2(O)C(=O)NCCc1cnccn1` (some centres unmarked) [Compound 11]: where the note is “Table 2”, the IC50 lay within 0.06 to 20 nM and the Emax is over 80%.

As to `C[C@]12Cc3cnn(-c4ccc(F)cc4)c3C=C1CCC1C2[C@@H](O)C[C@@]2(C)C1CC[C@]2(O)C(=O)NCCc1nc2ccccc2o1` (some centres unmarked) [Compound 12], for the setting “Table 2”, the IC50 was in the range of 0.06 to 20 nM and the Emax was over 80%.

Regarding `C[C@H](NC(=O)[C@@]1(O)CCC2C3CCC4=Cc5c(cnn5-c5ccc(F)cc5)C[C@]4(C)C3[C@@H](O)C[C@@]21C)c1ccccc1` (some centres unmarked) [Compound 13], under “Table 2”, the IC50 fell in the range of 0.06 to 20 nM and the Emax was over 80%.

Regarding `CC12Cc3cnn(-c4ccc(F)cc4)c3C=C1CCC1C2[C@@H](O)CC2(C)C1CC[C@]2(O)C(=O)NCc1cn(Cc2ccccc2)nn1` (some centres unmarked) [Compound 14], for the setting “Table 2”, the IC50 fell in the range of 0.06 to 20 nM and the Emax was over 80%.

As for `Cn1c(SCC(=O)[C@@]2(O)CCC3C4CCC5=Cc6c(cnn6-c6ccccc6)CC5(C)C4[C@@H](O)CC32C)nc2ccccc21` (some centres unmarked) [Compound 14], under “Table 1”, the IC50 is 0.06 to 20 nM and the Emax was over 80%.

For `CC12Cc3cnn(-c4ccccc4)c3C=C1CCC1C2[C@@H](O)CC2(C)C1CC[C@]2(O)C(=O)CSc1ccc2ccccc2n1` (some centres unmarked) [Compound 15], where the note is “Table 1”, the IC50 lay within 0.06 to 20 nM and the Emax is over 80%.

Consider `C[C@H](NC(=O)[C@@]1(OC(=O)c2ccco2)CCC2C3CCC4=Cc5c(cnn5-c5ccc(F)cc5)CC4(C)C3[C@@H](O)CC21C)c1cccc2ccccc12` (some centres unmarked) [Compound 15], for which, for the setting “Table 2”, the IC50 is 0.06 to 20 nM and the Emax is over 80%.

For `CC12Cc3cnn(-c4ccccc4)c3C=C1CCC1C2[C@@H](O)CC2(C)C1CC[C@]2(O)C(=O)CSc1ccccn1` (some centres unmarked) [Compound 16], for the setting “Table 1”, the IC50 was 0.06 to 20 nM and the Emax is over 80%.
